Reference: publication PMC10985226, “A tangible method to assess native ferroptosis suppressor activity” (Cell Reports Methods, 2024)

Target: T1, Glutathione peroxidase 4 (Strep-hGPX4) (Homo sapiens, UniProt P36969)
T1 construct: gene GPX4
T1 sequence (P36969 28-197): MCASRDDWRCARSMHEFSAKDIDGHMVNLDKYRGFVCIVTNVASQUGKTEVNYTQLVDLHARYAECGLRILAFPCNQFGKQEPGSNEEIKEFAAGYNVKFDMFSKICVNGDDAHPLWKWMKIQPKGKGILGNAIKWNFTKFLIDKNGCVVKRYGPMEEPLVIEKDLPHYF
Test: substrate turnover by isolated hGPX4, NADPH-coupled assay
Type: biochemical

Compound	substrate turnover by isolated hGPX4, NADPH-coupled assay
CC(C)(C)OO [tBuOOH, tert-butyl hydroperoxide]	All hydroperoxides except for H2O2 afforded the GPX4-dependent NADPH consumption in the assay system
CC(C)(OO)c1ccccc1 [cumeneOOH, cumene hydroperoxide]	All hydroperoxides except for H2O2 afforded the GPX4-dependent NADPH consumption in the assay system
